Laboratory results published in patent publication US5705487A, “Antithrombotic agents” (priority 1995, dated 1998).
Structures can show the parent of a compound that is named as a salt.

Key:
Format in all cases: biochemical
Human Plasma [1] = test: Human plasma anticoagulation, prothrombin time (PT); settings: concentration required to double the clotting time
Protocol: (§1) Dog plasma and rat plasma is obtained from conscious mixed-breed hounds (either sex, Hazelton-LRE, Kalamazoo, Mich., U.S.A.) or from anesthetized male Sprague-Dawley rats (Harlan Sprague-Dawley, Inc., Indianapolis, Ind., U.S.A.) by venipuncture into 3.8 percent citrate. Fibrinogen is prepared from in-date ACD human blood as the fraction I-2 according to previous procedures and specifications. […] Human fibrinogen is also purchased as 98 percent pure/plasmin free from American Diagnostica, Greenwich, Conn. Coagulation reagents ACTIN, Thromboplastin, and Human plasma are from Baxter Healthcare Corp., Dade Division, Miami, Fla. Bovine thrombin from Parke-Davis ([…], Mich.) is used for coagulation assays in plasma.
(§2) Coagulation assay procedures are as previously described. […] A CoAScreener coagulation instrument (American LABor, Inc.) is used for all coagulation assay measurements. The prothrombin time (PT) is measured by adding 0.05 mL saline and 0.05 mL Thromboplastin-C reagent to 0.05 mL test plasma. The activated partial thromboplastin time (APTT) is measured by incubation of 0.05 mL test plasma with 0.05 mL Actin reagent for 120 seconds followed by 0.05 mL CaCl2 (0.02M). The thrombin time (TT) is measured by adding 0.05 mL saline and 0.05 mL thrombin (10 NIH units/mL) to 0.05 mL test plasma. The compounds of Formula I are added to human or animal plasma over a wide range of concentrations to determine prolongation effects on the APTT, PT, and TT assays. Linear extrapolations are performed to estimate the concentrations required to double the clotting time for each assay.

Human plasmin = biological target: T1, Human plasmin (Homo sapiens, UniProt P00747); test: Kass, plasmin chromogenic substrate assay; settings: substrate H-D-Val-Leu-Lys-p-nitroanilide
T1 construct: Human plasmin is purchased from Boehringer Mannheim; purchased Boehringer Mannheim, Indianapolis, Ind
T1 sequence (P00747 581-810 limits assumed): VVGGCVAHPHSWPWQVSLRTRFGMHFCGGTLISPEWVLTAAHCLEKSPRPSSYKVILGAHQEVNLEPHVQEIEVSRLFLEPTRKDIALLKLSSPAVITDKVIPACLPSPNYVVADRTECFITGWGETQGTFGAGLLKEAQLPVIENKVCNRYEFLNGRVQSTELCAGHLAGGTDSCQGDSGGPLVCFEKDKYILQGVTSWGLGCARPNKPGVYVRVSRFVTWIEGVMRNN
T1 sequence (P00747 97-580 partner limits assumed): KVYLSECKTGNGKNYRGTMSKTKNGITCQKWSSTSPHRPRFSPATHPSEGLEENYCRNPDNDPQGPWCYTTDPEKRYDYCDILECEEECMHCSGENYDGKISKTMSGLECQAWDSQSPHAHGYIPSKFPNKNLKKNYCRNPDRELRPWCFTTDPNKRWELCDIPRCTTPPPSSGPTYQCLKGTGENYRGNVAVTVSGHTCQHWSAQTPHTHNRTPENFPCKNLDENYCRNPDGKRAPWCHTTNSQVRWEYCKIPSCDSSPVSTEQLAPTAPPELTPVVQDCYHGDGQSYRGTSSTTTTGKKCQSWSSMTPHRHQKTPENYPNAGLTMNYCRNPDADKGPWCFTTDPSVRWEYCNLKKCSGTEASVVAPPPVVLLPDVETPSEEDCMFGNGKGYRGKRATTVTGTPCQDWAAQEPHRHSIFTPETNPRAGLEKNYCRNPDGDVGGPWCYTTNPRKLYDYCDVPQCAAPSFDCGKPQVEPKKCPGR

t-PA = biological target: T2, t-PA (Homo sapiens, UniProt P00750); test: Kass, t-PA chromogenic substrate assay; settings: substrate H-D-Ile-Pro-Arg-p-nitroanilide
T2 construct: purchased American Diagnostica, Greenwich, Conn
T2 sequence (P00750 36-562): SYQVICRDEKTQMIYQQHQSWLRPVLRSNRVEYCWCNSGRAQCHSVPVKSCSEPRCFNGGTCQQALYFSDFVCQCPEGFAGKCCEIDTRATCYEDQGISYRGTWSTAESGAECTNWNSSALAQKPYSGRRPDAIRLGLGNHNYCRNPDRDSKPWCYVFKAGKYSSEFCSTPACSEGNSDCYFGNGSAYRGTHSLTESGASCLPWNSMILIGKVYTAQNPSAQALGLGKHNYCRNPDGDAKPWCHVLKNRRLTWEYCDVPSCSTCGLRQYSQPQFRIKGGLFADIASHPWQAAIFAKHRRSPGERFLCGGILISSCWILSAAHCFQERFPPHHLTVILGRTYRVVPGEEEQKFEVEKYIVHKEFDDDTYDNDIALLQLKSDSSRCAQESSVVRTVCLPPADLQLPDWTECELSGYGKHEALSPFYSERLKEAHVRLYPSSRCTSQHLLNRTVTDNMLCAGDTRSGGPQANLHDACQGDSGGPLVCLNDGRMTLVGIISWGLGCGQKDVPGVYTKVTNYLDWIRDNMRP
Protocol: (§3) By substantially following the procedures described above for human thrombin, and using other human blood coagulation system serine proteases and proteases of the fibrinolytic system with the appropriate chromogenic substrates, identified below, selectivity of the compounds of the present invention with respect to the coagulation factor serine proteases and with respect to the fibrinolytic system serine proteases are evaluated as well as their substantial lack of interference with serine proteases of the fibrinolytic system.
Human plasmin is purchased from Boehringer Mannheim, Indianapolis, Ind.; nt-PA is purchased as single chain activity reference from American Diagnostica, Greenwich, Conn.; modified-t-PA6 (mt-PA6) is prepared at Eli Lilly and Company by procedure known in the art (See, Burck, et al., J. Biol. Chem., 265, 5120-5177 (1990). Plasmin chromogenic substrate H-D-Val-Leu-Lys-p-nitroanilide and tissue plasminogen activator (t-PA) substrate H-D-Ile-Pro-Arg-p-nitroanilide are purchased from Kabi Vitrum, Stockholm, Sweden.

Human Plasma [2] = test: Human plasma anticoagulation, thrombin time (TT); settings: concentration required to double the clotting time
Protocol: as §1, §2

Bovine trypsin = biological target: T3, Bovine trypsin (Bos taurus, UniProt P00760); test: Kass, trypsin chromogenic substrate assay; settings: substrate N-Benzoyl-Phe-Val-Arg-p-nitroanilide
T3 construct: Bovine trypsin is purchased from Worthington Biochemicals; purchased Worthington Biochemicals, Freehold, N.J
T3 sequence (P00760 24-246): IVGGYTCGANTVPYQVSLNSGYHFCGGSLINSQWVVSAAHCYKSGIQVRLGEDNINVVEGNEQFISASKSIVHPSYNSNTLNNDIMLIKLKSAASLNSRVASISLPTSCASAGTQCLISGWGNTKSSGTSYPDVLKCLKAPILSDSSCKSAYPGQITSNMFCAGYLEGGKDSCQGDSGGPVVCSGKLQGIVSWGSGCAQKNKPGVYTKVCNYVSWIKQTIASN

Human Plasma [3] = test: Human plasma anticoagulation, activated partial thromboplastin time (APTT); settings: concentration required to double the clotting time
Protocol: as §1, §2

factor Xa = biological target: T4, factor Xa (Homo sapiens, UniProt P00742); test: Kass, factor Xa chromogenic substrate assay; settings: substrate N-Benzoyl-Ile-Glu-Gly-Arg-p-nitroanilide
T4 construct: Human factors X, Xa, IXa, XIa, and XIIa are purchased; purchased Enzyme Research Laboratories, South Bend, Ind
T4 sequence (P00742 235-488 limits assumed): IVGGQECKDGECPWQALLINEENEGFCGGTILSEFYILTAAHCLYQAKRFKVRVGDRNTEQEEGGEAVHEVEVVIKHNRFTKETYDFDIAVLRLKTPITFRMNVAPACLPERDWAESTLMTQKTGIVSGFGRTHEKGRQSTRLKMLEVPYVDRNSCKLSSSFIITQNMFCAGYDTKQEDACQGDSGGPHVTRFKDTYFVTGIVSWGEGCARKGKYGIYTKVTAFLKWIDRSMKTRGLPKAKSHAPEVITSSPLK
T4 sequence (P00742 41-179 partner limits assumed): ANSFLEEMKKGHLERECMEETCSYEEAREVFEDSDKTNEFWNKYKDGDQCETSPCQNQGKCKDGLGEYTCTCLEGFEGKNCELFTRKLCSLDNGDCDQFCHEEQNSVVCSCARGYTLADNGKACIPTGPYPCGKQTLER
Protocol: as §3
Chromogenic substrates: N-Benzoyl-Ile-Glu-Gly-Arg-p-nitroanilide (for factor Xa); N-Cbz-D-Arg-Gly-Arg-p-nitroanilide (for factor IXa assay as the factor Xa substrate); Pyroglutamyl-Pro-Arg-p-nitroanilide (for Factor XIa and for aPC); H-D-Pro-Phe-Arg-p-nitroanilide (for factor XIIa); and Pyroglutamyl-Gly-Arg-p-nitroanilide (for urokinase); are purchased from KabiVirum, Stockholm, Sweden, or from Midwest Biotech, Fishers, Ind. Bovine trypsin is purchased from Worthington Biochemicals, Freehold, N.J., and human plasma kallikrein from Kabi Vitrum, Stockholm, Sweden. […] N-Benzoyl-Phe-Val-Arg-p-nitroanilide, the substrate for human thrombin and for trypsin, is synthesized according to procedures described above for the compounds of the present invention, using known methods of peptide coupling from commercially available reactants or purchased from Midwest Biotech, Fishers, Ind.

Human Thrombin = Human Thrombin (Homo sapiens, UniProt P00734); test: Inhibition of the amidase activity of thrombin (Kass); settings: chromogenic substrate N-benzoyl-Phe-Val-Arg-p-nitroanilide; mean over range of concentrations
Protocol: The 150 μL of an aqueous solution of the chromogenic substrate (at 0.25 mg/mL) are added and the rates of hydrolysis of the substrate are measured by monitoring the reactions at 405 nm for the release of p-nitroaniline. Standard curves are constructed by plotting free thrombin concentration against hydrolysis rate. […] The amount of free inhibitor in each assay is calculated by subtracting the number of moles of bound thrombin from the number of moles of added inhibitor (test compound).
The Kass value is the hypothetical equilibrium constant for the reaction between thrombin and the test compound (I).
Kass is calculated for a range of concentrations of test compounds and the mean value is reported in units of liter per mole.

Row | Compound | Human Plasma Anticoagulation 2x Clotting time PT (Human Plasma [1]) | Kass × 10^6 (L/mole) Plasmin (Human plasmin) | Kass × 10^6 (L/mole) t-PA (t-PA) | Human Plasma Anticoagulation 2x Clotting time TT (Human Plasma [2]) | Kass × 10^6 (L/mole) Trypsin (Bovine trypsin) | Human Plasma Anticoagulation 2x Clotting time APTT (Human Plasma [3]) | Kass × 10^6 (L/mole) Xa (factor Xa) | Kass × 10^6 (L/mole) Human Thrombin (Human Thrombin)
1 | N=C(N)NCCCCNC(=O)[C@@H]1CCCN1C(=O)[C@@H]1NCC[C@H]2CCCC[C@H]21 [Example 61, N-[4-[(aminoiminomethyl)amino]butyl]-1-[[(4aR,8aR)-decahydro-1(R)-isoquinolinyl]carbonyl]-1-prolinamide trihydrochloride] | 756 ng/mL | 0.004 × 10^6 L/mole | 0.008 × 10^6 L/mole | 45 ng/mL | 1.0 × 10^6 L/mole | 679 ng/mL | 0.03 × 10^6 L/mole | 63 × 10^6 L/mole
2 | N=C(N)c1cccc(CCCNC(=O)[C@@H]2CCCN2C(=O)[C@@H]2NCC[C@@H]3CCCC[C@@H]32)c1 [Example 33, 1-Piq-Pro-m-NHCH2 CH2 CH2 -C6 H4 C(=NH)NH2.HCl] | 70,900 ng/mL | < 0.001 × 10^6 L/mole | < 0.001 × 10^6 L/mole | 18,900 ng/mL | 0.02 × 10^6 L/mole | 59,300 ng/mL | 0.04 × 10^6 L/mole | 0.04 × 10^6 L/mole
3 | CCS(=O)(=O)N[C@H](Cc1ccccc1)C(=O)N1CCC[C@H]1C(=O)NCc1cccc(NC(=N)N)c1 [Example 36, EtSO2 -D-Phe-Pro-m-NHCH2 C6 H4 NHC(NH)NH2.HCl] | > 91,000 ng/mL | < 0.001 × 10^6 L/mole | < 0.001 × 10^6 L/mole | 7,700 ng/mL | 0.01 × 10^6 L/mole | > 91,000 ng/mL | < 0.001 × 10^6 L/mole | 0.06 × 10^6 L/mole
4 | Cl.N=C(N)c1ccc(CNC(=O)[C@@H]2C[C@@H]3CCCC[C@@H]3N2C(=O)[C@@H](CC2CCCCC2)NCC(=O)O)cc1 (relative stereo) [Example 49, HOOCCH2 -D-Cha-cis-Ohi-p-NHCH2 C6 H4 C(NH)NH2.HCl] | 130 ng/mL | 0.84 × 10^6 L/mole | 0.04 × 10^6 L/mole | 5 ng/mL | 940. × 10^6 L/mole | 130 ng/mL | 3.4 × 10^6 L/mole | 400 × 10^6 L/mole
5 | O=C(O)CN[C@H](CC1CCCCC1)C(=O)N1CCC[C@H]1C(=O)NCCCC1CCNCC1 [Example 55, HO2 CCH2 -D-Cha-Pro-4-NHCH2 CH2 CH2 -piperidine.HCl] | > 91,000 ng/mL | < 0.001 × 10^6 L/mole | < 0.001 × 10^6 L/mole | 55,800 ng/mL | 0.01 × 10^6 L/mole | > 91,000 ng/mL | < 0.001 × 10^6 L/mole | 0.01 × 10^6 L/mole
6 | CCOC(=O)N[C@H](Cc1ccccc1)C(=O)N1CCC[C@H]1C(=O)NCCCCN=C(N)N.Cl [Example 3, EtOCO-D-Phe-Pro-Agm.HCl] |  | 0.0046 × 10^6 L/mole | 0.033 × 10^6 L/mole | 590 ng/mL | 0.24 × 10^6 L/mole |  | 0.0021 × 10^6 L/mole | 2.1 × 10^6 L/mole
7 | Cl.NC[C@H]1CC[C@H](CNC(=O)[C@@H]2CCCN2C(=O)[C@H](N)Cc2ccccc2)CC1 (relative stereo) [Example 12, D-Phe-Pro-NHCH2 -trans-4-(aminomethyl)cyclohexane.HCl] |  | 0.00087 × 10^6 L/mole | 0.000042 × 10^6 L/mole | 1,700 ng/mL | 0.0022 × 10^6 L/mole |  | 0.000042 × 10^6 L/mole | 0.44 × 10^6 L/mole
8 | Cl.O=C(O)CNC(CC1CCCCC1)C(=O)N1CCCC1C(=O)NCCC1CCNCC1 [Example 54, HO2 CCH2 -D-Cha-Pro-4-NHCH2 CH2 -piperidine.HCl] | 2,200 ng/mL | 0.01 × 10^6 L/mole | < 0.001 × 10^6 L/mole | 140 ng/mL | 0.52 × 10^6 L/mole | 3,300 ng/mL | < 0.001 × 10^6 L/mole | 2.8 × 10^6 L/mole
9 | CCS(=O)(=O)N[C@H](Cc1ccccc1)C(=O)N1CCC[C@H]1C(=O)NCCCc1cccc(C(=N)N)c1 [Example 31, EtSO2 -D-Phe-Pro-m-NHCH2 CH2 CH2 -C6 H4 C(=NH)NH2.HCl] | 30,000 ng/mL | < 0.001 × 10^6 L/mole | < 0.001 × 10^6 L/mole | 10,800 ng/mL | 0.05 × 10^6 L/mole | 34,500 ng/mL | 0.14 × 10^6 L/mole | 0.07 × 10^6 L/mole
10 | N=C(N)c1ccc(CNC(=O)[C@@H]2C[C@@H]3CCCC[C@@H]3N2C(=O)[C@@H](Cc2ccccc2)NCC(=O)O)cc1 (relative stereo) [Example 47, HOOCCH2 -D-Phe-cis-Ohi-p-NHCH2 C6 H4 C(NH)NH2.HCl] | 270 ng/mL | 0.18 × 10^6 L/mole | 0.01 × 10^6 L/mole | 12. ng/mL | 82. × 10^6 L/mole | 140 ng/mL | 0.04 × 10^6 L/mole | 45 × 10^6 L/mole
11 | D-hPro-N(PhCH2 CH2)Gly-p-NHCH2 -C6 H4 C(NH)NH2.2HCl [Example 21] | 1,000 ng/mL | 0.031 × 10^6 L/mole | 0.002 × 10^6 L/mole | 160 ng/mL | 0.96 × 10^6 L/mole | 2,000 ng/mL | 0.62 × 10^6 L/mole | 3.6 × 10^6 L/mole
12 | Cl.Nc1ccc(CCNC(=O)[C@@H]2CCCN2C(=O)[C@H](N)Cc2ccccc2)cc1 [Example 14, D-Phe-Pro-P-NHCH2 CH2 C6 H4 NH2.HCl] |  | 0.000046 × 10^6 L/mole | < 0.001 × 10^6 L/mole | 21,000 ng/mL | 0.000056 × 10^6 L/mole |  | 0.00014 × 10^6 L/mole | 0.021 × 10^6 L/mole
13 | Cl.NCc1cccc(CNC(=O)[C@@H]2CCCN2C(=O)[C@H](N)Cc2ccccc2)c1 [Example 11, D-Phe-Pro-m-NHCH2 C6 H4 CH2 NH2.HCl] |  | 0.0060 × 10^6 L/mole | < 0.001 × 10^6 L/mole | 8,800 ng/mL | 0.0036 × 10^6 L/mole |  | 0.000068 × 10^6 L/mole | 0.064 × 10^6 L/mole
14 | N=C(N)NCCCNC(=O)[C@@H]1CCCN1C(=O)[C@H](N)Cc1ccccc1 [Example 7, D-Phe-Pro-NH(CH2)3 NHC(NH)NH2.HCl] |  | 0.00022 × 10^6 L/mole | 0.0037 × 10^6 L/mole | 490 ng/mL | 0.0081 × 10^6 L/mole |  | 0.0041 × 10^6 L/mole | 1.9 × 10^6 L/mole
